Where two headings read alike, the source gives them in different places. Marks after values point to notes of the source that are not given here.
How the values were obtained:
[1] = Compound I Form I solubility in various liquid vehicles; type: physicochemical
[2] = Compound I chemical stability in various liquid vehicles at 40° C.; type: physicochemical; conditions: 40° C. vs −20° C. control
Excerpt: Stability of 3-[(3aR,4R,5S,7aS)-5-{(1R)-1-[3,5-bis(Trifluoromethyl)phenyl]ethoxy}-4-(4-fluorophenyl)-octahydro-2H-isoindol-2-yl]cyclopent-2-en-1-one, (Compound I) in Various Liquid Vehicles

[3] = Pharmacokinetics after oral administration of liquid filled capsules; type: in vivo, male Beagle dogs; conditions: male, Beagle, dog, plasma, 40 mg, 40 mg oral, Mean ± SD; for AUC(0-t): read-out: AUC0-24
[4] = liquid filled capsules with Imwitor742/Tween80 (75:25), male Beagle dogs
[5] = liquid filled capsules with Imwitor742:Tween80 (50:50), male Beagle dogs
[6] = liquid filled capsules with pure Imwitor742, male Beagle dogs

## C[C@@H](O[C@H]1CC[C@@H]2CN(C3=CC(=O)CC3)C[C@H]2[C@@H]1c1ccc(F)cc1)c1cc(C(F)(F)F)cc(C(F)(F)F)c1 [Compound I, 3-[(3aR,4R,5S,7aS)-5-{(1R)-1-[3,5-bis(Trifluoromethyl)phenyl]ethoxy}-4-(4-fluorophenyl)-octahydro-2H-isoindol-2-yl]cyclopent-2-en-1-one]
[1]; Form I, 0.5% Methylcellulose, Room Temp
  Solubility: 0.001 mg/g of formulation
[1]; Form I, 1:1 Imwitor:Tween + 1 eq HCl, Room Temp
  Solubility: >57 mg/g of formulation
[1]; Form I, Acconon MC-8, 35° C.
  Solubility: <1 mg/g of formulation
[1]; Form I, Capmul MCM C-8, 35° C.
  Solubility: 53 mg/g of formulation
[1]; Form I, Capmul PG-8, 35° C.
  Solubility: 50 mg/g of formulation
[1]; Form I, Capmul PG-12, 35° C.
  Solubility: 25 mg/g of formulation
[1]; Form I, Capryol PGMC, 30° C.
  Solubility: 29 mg/g of formulation
[1]; Form I, Capryol PGMC, Room Temp
  Solubility: >6 mg/g of formulation
[1]; Form I, Captex 200P, 35° C.
  Solubility: 2 mg/g of formulation
[1]; Form I, Corn Oil, Room Temp
  Solubility: <0.1 mg/g of formulation
[1]; Form I, Cremophor EL, Room Temp
  Solubility: 2 mg/g of formulation
[1]; Form I, Ethanol, Room Temp
  Solubility: 58 mg/g of formulation
[1]; Form I, Gelucire 44/14, 65° C.
  Solubility: 4 mg/g of formulation
[1]; Form I, Glycerin, Room Temp
  Solubility: <0.5 mg/g of formulation
[1]; Form I, Imwitor 308, 35° C.
  Solubility: 58 mg/g of formulation
[1]; Form I, Imwitor 642, 35° C.
  Solubility: 78 mg/g of formulation
[1]; Form I, Imwitor 742, 30° C.
  Solubility: 43 mg/g of formulation
[1]; Form I, Imwitor 742, 35° C.
  Solubility: 46 mg/g of formulation
[1]; Form I, Imwitor 742, Room Temp
  Solubility: >6 mg/g of formulation
[1]; Form I, Imwitor 988, 35° C.
  Solubility: 54 mg/g of formulation
[1]; Form I, Labrafil M1944CS, 35° C.
  Solubility: 4 mg/g of formulation
[1]; Form I, Labrafil M2125CS, 35° C.
  Solubility: 4 mg/g of formulation
[1]; Form I, Labrafil M2125CS, Room Temp
  Solubility: 5 mg/g of formulation
[1]; Form I, Labrasol, 35° C.
  Solubility: 11 mg/g of formulation
[1]; Form I, Labrasol, Room Temp
  Solubility: 7 mg/g of formulation
[1]; Form I, Miglyol 812, Room Temp
  Solubility: 0.4 mg/g of formulation
[1]; Form I, Olive Oil, Room Temp
  Solubility: <0.1 mg/g of formulation
[1]; Form I, PEG 400:water (92:8) + 1 eq HCl, Room Temp
  Solubility: 24 mg/g of formulation
[1]; Form I, PEG 400:water (92:8) + 1 eq NaOH, Room Temp
  Solubility: 1.3 mg/g of formulation
[1]; Form I, PEG 400:water (92:8), Room Temp
  Solubility: 1.0 mg/g of formulation
[1]; Form I, PEG 400, Room Temp
  Solubility: 2 mg/g of formulation
[1]; Form I, Peceol, 35° C.
  Solubility: 19 mg/g of formulation
[1]; Form I, Propylene Glycol, 35° C.
  Solubility: 8 mg/g of formulation
[1]; Form I, Propylene Glycol, Room Temp
  Solubility: 5 mg/g of formulation
[1]; Form I, Soybean Oil, Room Temp
  Solubility: <0.1 mg/g of formulation
[1]; Form I, Tween 20, Room Temp
  Solubility: 2 mg/g of formulation
[1]; Form I, Tween 80, Room Temp
  Solubility: 1 mg/g of formulation
[1]; Form I, Water, Room Temp
  Solubility: <0.0002 mg/g of formulation
[1]; Form I, pH 1.3 aqueous, Room Temp
  Solubility: 0.001 mg/g of formulation
[1]; Form I, pH 2.2 to 10.1 aqueous, Room Temp
  Solubility: <0.0002 mg/g of formulation
[1]; aqueous medium, read-out: aqueous solubility
  Solubility: < 0.2 µg/mL
[1]; relative to a fully efficacious amount of solubilized compound in a 500 mg capsule
  solubility in Miglyol 812: not sufficiently soluble
[2]; 1 mg Compound I/g vehicle, 1:1 Imwitor 742:Tween 80 +0.05% PG + 0.05% BHA, 1 wk
  Chemical stability: 102.2 % claim
[2]; 1 mg Compound I/g vehicle, 1:1 Imwitor 742:Tween 80 +0.05% PG + 0.05% BHA, 18 wk
  Chemical stability: 94.7 % claim
[2]; 1 mg Compound I/g vehicle, 1:1 Imwitor 742:Tween 80 +0.05% PG + 0.05% BHT, 1 wk
  Chemical stability: 99.4 % claim
[2]; 1 mg Compound I/g vehicle, 1:1 Imwitor 742:Tween 80 +0.05% PG + 0.05% BHT, 18 wk
  Chemical stability: 93.7 % claim
[2]; 1 mg Compound I/g vehicle, 1:1 Imwitor 742:Tween 80 +0.05% PG + 0.05% NaSO3, 1 wk
  Chemical stability: 98.5 % claim
[2]; 1 mg Compound I/g vehicle, 1:1 Imwitor 742:Tween 80 +0.1% Ascorbic Acid Palmitate, 1 wk
  Chemical stability: 94.2 % claim
[2]; 1 mg Compound I/g vehicle, 1:1 Imwitor 742:Tween 80 +0.1% Ascorbic Acid Palmitate, 4 wk
  Chemical stability: 89.4 % claim
[2]; 1 mg Compound I/g vehicle, 1:1 Imwitor 742:Tween 80 +0.1% BHA, 1 wk
  Chemical stability: 98.4 % claim
[2]; 1 mg Compound I/g vehicle, 1:1 Imwitor 742:Tween 80 +0.1% BHA, 4 wk
  Chemical stability: 96.1 % claim
[2]; 1 mg Compound I/g vehicle, 1:1 Imwitor 742:Tween 80 +0.1% Propyl Gallate, 1 wk
  Chemical stability: 99.6 % claim
[2]; 1 mg Compound I/g vehicle, 1:1 Imwitor 742:Tween 80 +0.1% Propyl Gallate, 4 wk
  Chemical stability: 97.7 % claim
[2]; 1 mg Compound I/g vehicle, 1:1 Imwitor 742:Tween 80 +0.1% Propyl Gallate, 18 wk
  Chemical stability: 93.1 % claim
[2]; 1 mg Compound I/g vehicle, 1:1 Imwitor 742:Tween 80 +0.1% α-tocopherol, 1 wk
  Chemical stability: 86.7 % claim
[2]; 1 mg Compound I/g vehicle, 1:1 Imwitor 742:Tween 80 +0.1% α-tocopherol, 4 wk
  Chemical stability: 71.1 % claim
[2]; 1 mg Compound I/g vehicle, 1:1 Imwitor 742:Tween 80, 1 wk
  Chemical stability: 95.2 % claim
[2]; 1 mg Compound I/g vehicle, 1:1 Imwitor 742:Tween 80, 4 wk
  Chemical stability: 90.4 % claim
[2]; 1 mg Compound I/g vehicle, 1:1 Imwitor 742:Tween 80, 5 wk
  Chemical stability: 83.8 % claim
[2]; 1 mg Compound I/g vehicle, 1:1 Imwitor 742:Tween 80, 18 wk
  Chemical stability: 73.7 % claim
[2]; 1 mg Compound I/g vehicle, 6:4 Imwitor 742:Propylene Glycol, 1 wk
  Chemical stability: 100.2 % claim
[2]; 1 mg Compound I/g vehicle, 6:4 Imwitor 742:Propylene Glycol, 2 wk
  Chemical stability: 100.6 % claim
[2]; 1 mg Compound I/g vehicle, 6:4 Imwitor 742:Propylene Glycol, 4 wk
  Chemical stability: 100.0 % claim
[2]; 1 mg Compound I/g vehicle, 6:4 Imwitor 742:Propylene Glycol, 8 wk
  Chemical stability: 100.6 % claim
[2]; 1 mg Compound I/g vehicle, 9:1 Imwitor 742:Tween 80, 1 wk
  Chemical stability: 99.6 % claim
[2]; 1 mg Compound I/g vehicle, 9:1 Imwitor 742:Tween 80, 9.5 wk
  Chemical stability: 96.4 % claim
[2]; 1 mg Compound I/g vehicle, Capmul MCM C8, 1 wk
  Chemical stability: 99.0 % claim
[2]; 1 mg Compound I/g vehicle, Capmul MCM C8, 32.5 wk
  Chemical stability: 78.1 % claim
[2]; 1 mg Compound I/g vehicle, Capmul PG-8, 1 wk
  Chemical stability: 99.7 % claim
[2]; 1 mg Compound I/g vehicle, Imwitor 742, 1 wk
  Chemical stability: 99.8 % claim
[2]; 1 mg Compound I/g vehicle, Imwitor 742, 5 wk
  Chemical stability: 98.8 % claim
[2]; 1 mg Compound I/g vehicle, Imwitor 742, 9.5 wk
  Chemical stability: 99.8 % claim
[2]; 1 mg Compound I/g vehicle, Imwitor 742, 32.5 wk
  Chemical stability: 97.0 % claim
[2]; at 10 mg/g, Imwitor 742 + 0.75 eq HCl, 1 wk
  Chemical stability: 100.6 % claim
[2]; at 10 mg/g, Imwitor 742:Tween 80 +0.75 eq Benzenesulfonic Acid (acid not completely dissolved), 1 wk
  Chemical stability: 99.1* % claim
[2]; at 10 mg/g, Imwitor 742:Tween 80 +0.75 eq HCl, 1 wk
  Chemical stability: 95.2 % claim
[2]; at 10 mg/g, Imwitor 742:Tween 80 +0.75 eq Phosphoric Acid, 1 wk
  Chemical stability: 96.4 % claim
[2]; at 10 mg/g, Imwitor 742:Tween 80 +0.75 eq Sulfuric Acid, 1 wk
  Chemical stability: 82.9 % claim
[2]; at 10 mg/g, PEG 400 + 0.75 eq HCl, 1 wk
  Chemical stability: 60.3 % claim
[2]; at 10 mg/g, Propylene Glycol + 0.75 eq HCl, 1 wk
  Chemical stability: 95.2 % claim
[3]; [4]
  Cmax: 4.06 ± 0.49 µM
  Tmax: 3.33 ± 1.03 h
  AUC(0-t): 65.4 ± 14.7 µM·h
[3]; [5]
  Cmax: 3.04 ± 0.44 µM
  Tmax: 3.67 ± 0.82 h
  AUC(0-t): 49 ± 11.5 µM·h
[3]; [6]
  Cmax: 4.22 ± 0.54 µM
  Tmax: 4.67 ± 1.63 h
  AUC(0-t): 69 ± 14.2 µM·h

Reference: patent publication US20100209496A1, “LIQUID AND SEMI-SOLID PHARMACEUTICAL FORMULATIONS FOR ORAL ADMINISTRATION OF A SUBSTITUTED AMIDE” (priority 2006, published 2010)
